In patent publication US7488758B2 (Teva Pharmaceutical Fine Chemicals, S.r.l., priority 2004, dated 2009):
Where two headings read alike, the source gives them in different places.

Conditions: for water content: after exposure at about 100% relative humidity for one week, hydrochloride; for water absorption, outcome in words: one-week exposure at 100% relative humidity; for LOD (%) (water content by TGA) / Polymorph by XRD: one week exposure
Method: After each exposure the water content was determined by Thermal Gravimetric Analysis (TGA) and reported as loss on drying (LOD) as a weight percentage and the crystal structure was determined by X-ray Diffraction (XRD).
The X-Ray diffraction (XRD) analysis was conducted using an ARL X-Ray powder diffractometer (model X'TRA-030) equipped with a Peltier detector, round standard aluminum sample holder with round zero background, and quartz plate. The scanning parameters were from a range of about 2-40 degree two θ (±0.2 degrees) and a continuous scan at a rate of about 3 degrees/min.
Thermal Gravimetric Analysis (TGA) was conducted using a Mettler Toledo TGA/SDTA 851^e using a sample weight of about 7-15 mg, a heating rate of about 10° C. min. under a N2 stream at a N2 flow rate of about 50 ml/min. The samples were scanned at a range between about 30° C. to about 250° C.

| water content | LOD (%) (water content by TGA) (RH 0%) | LOD (%) (water content by TGA) (RH 20%) | LOD (%) (water content by TGA) (RH 40%) | LOD (%) (water content by TGA) (RH 60%) | LOD (%) (water content by TGA) (RH 80%) | Polymorph by XRD (RH 80%) | LOD (%) (water content by TGA) (RH 100%) | Polymorph by XRD (RH 100%) | Structure (SMILES) | water absorption, outcome in words |
| --- | --- | --- | --- | --- | --- | --- | --- | --- | --- | --- |
| about 34% |  |  |  |  |  |  |  |  | CC(C)(C)NC[C@H](O)c1ccc(O)c(CO)c1.Cl [Polymorph A, (R)-α^1-[[(1,1-dimethylethyl)amino]methyl]-4-hydroxy-1,3-benzenedimethanol hydrochloride, reference compound] | absorbed sufficient water to dissolve the polymorph |
| about 36% | 0.21 | 0.25 | 0.25 | 0.30 | 0.48 | A >> B | 36.0 | only Polymorph A was detected | CC(C)(C)NC[C@H](O)c1ccc(O)c(CO)c1.Cl [Polymorph B, (R)-α^1-[[(1,1-dimethylethyl)amino]methyl]-4-hydroxy-1,3-benzenedimethanol hydrochloride] | absorbed sufficient water to dissolve the polymorph |
